Patent US20150093333A1, “COMPOSITIONS, METHODS AND USES FOR PEPTIDES IN DIAGNOSIS, PROGRESSION AND TREATMENT OF CANCERS” (THE REGENTS OF THE UNIVERSITY OF COLORADO, body corporate, priority 2003, published 2015)

How the values were obtained:
29 nm liposomes = settings: with 29 nm liposomes; cited from earlier work
synthetic lipid vesicles = experiment: Fluorescence enhancement assay of NBD-labeled MARCKS peptides with synthetic vesicles; assay type: binding; settings: FIG. 4B
Text: (§1) In another exemplary method, lipid vesicles were employed to the curvature-sensing behavior of the MARCKS derived peptides with various sizes and lipid components. The membrane curvature is defined as the reciprocal of the diameter of a particular particle, e.g., smaller-sized vesicles present highly curved membrane bilayers. A series of lipid models were made to represent various lipid components that closely resemble the lipid composition of biological membranes. […] Dynamic light scattering (DLS) and negative-stain transmission electron microscopy (TEM) were performed to confirm the different vesicle sizes following the pressure-controlled extrusion process through different membrane diameter pores. Commercial polystyrene beads were used as the calibration standard for the vesicle size validation experiments. Furthermore, a time-course experiment was carried out to confirm the stability of the vesicles up to 16 hours. Three different membrane diameters were extruded for the following biophysical characterizations: 30 nm, 100 nm, 400 nm, reflecting different membrane curvatures.
Next, a fluorescence enhancement assay was conducted to further quantify the curvature- and PS-sensing behavior of MARCKS-ED. Appropriate controls were performed to confirm that the fluorophore alone had no effect on the observed fluorescence enhancement (data not shown). FIG. 4 represents histogram data of fluorescence enhancement assay with and fluorescence anisotropy titration of the NBD labeled MARCKS derived peptides. Upon binding to lipid vesicles, the fluorescence intensity of NBD-MARCKS-ED increased due to vesicle binding and changes in the hydrophobic environment surrounding the fluorophore, concurring with a slight blue shift of the maximum emission wavelength. The emission spectra of all NBD-labeled peptides were recorded using a Fluorolog-3 fluorometer with λex=480 nm. The peptides and protein were tested at a concentration of 500 nM in PBS (pH 7.40) treated with 500 μM synthetic vesicles of different vesicles sizes. […] The positive control C2AB (200 nM) from the rat Synaptotagmin-1 (Syn-1) protein (G374, residues 96-421) was treated with CaCl2 (2.5 mM) and observed with λex of 275 nm and emission range of 300-450 nm. The untreated peptide and Ca^2+-C2AB samples were corrected by the PBS (pH=7.40) blank solution for the peptides and PBS with Ca^2+ for the Ca^2+-C2AB sample. All samples were prepared and incubated overnight in 4° C.
FIG. 4A illustrates a histogram plot of fluorescence intensity of MARCKS-ED treated with lipid vesicles of various sizes. […] Last, the fluorescence intensity differences were less significant with vesicles containing no PS. […]

[1] = test system: lipid vesicles 60% POPC:15% cholesterol:15% POPE:10% POPS; experiment: Fluorescence anisotropy titration of NBD-labeled MARCKS peptides with lipid vesicles; assay type: binding; settings: FIG. 4D
Description: In another example, because fluorescence enhancement assays could not distinguish the contributions between different degrees of membrane penetration and binding affinity, fluorescence anisotropy assay was performed to specifically measure the binding affinity of the MARCKS derived peptides. The NBD-labeled peptides (1 μM) were titrated by synthetic liposomes of various sizes (30, 100, and 400 nm). Fluorescence anisotropy was recorded using a Fluorolog-3 fluorometer. The mixture was allowed to equilibrate for 2 minutes prior to the next titration. The excitation wavelength was set to λex=480 nm whereas the emission filter was set to λem=545 nm. The voltage was set to 250 V throughout the experiment. Blank PBS (pH=7.40) was titrated to NBD-labeled peptides as a negative control, where negligible anisotropy change was observed. The following equation was used to determine the dissociation constants as previously reported: Fb=Kp [L]/(1+KP[L]), where Fb expresses the fraction of peptide bound to lipids, Kp expresses the molar partition coefficient and [L] expresses the lipid concentration.
Lipid vesicles were titrated to NBD-labeled MARCKS-ED, MARCKSmut1, or MARCKSmut2 peptides. Since the peptide partitions between the hydrophobic lipid bilayer and the aqueous solvent, the molar partition coefficient is often reported. By definition, the apparent dissociation constant (Kd), described as the lipid concentration where 50% of the peptide is bound, is the reciprocal of the molar partition coefficient (Kp). Fluorescence anisotropy assay results indicated efficient curvature sensing by MARCKS-ED. FIG. 4C represents an exemplary fluorescence anisotropy titration of MARCKS-ED with various lipid vesicles. FIG. 4D provides data of fluoresence anisotropy titration of various MARCKS derived peptides. Lipid vesicles used in the experiments represented by FIGS. 4C-4D contained 60% POPC:15% cholesterol: 15% POPE: 10% POPS. […] As a comparison, C2AB illustrated a 1.9 fold increase in binding to smaller vesicles (105 nm) relative to the larger ones (252 nm). […] In addition, electrostatic interactions of MARCKSmut2 were also compromised. […] Such defects would permit the Phe residue to insert and stabilize the highly curved membranes.

microvesicles in plasma = experiment: Nanoparticle tracking analysis of microvesicles in plasma from stressed rats treated with MARCKS peptides; assay type: binding, rat; settings: Alexa Fluor 546 labeled peptides 55 nM
Description: These isolated microvesicles were measured by nanoparticle tracking analysis (NTA) to confirm their average size (ø=56 nm). Tracking analyses were performed using the NanoSight LM10-HS instrument (Amesbury, UK) equipped with a 532 nm laser and observed at scatter and fluorescence modes (filter=550 nm). The instrument was calibrated using commercially available 50 nm polystyrene beads. […] Alexa Fluor 546™-labeled mouse anti-rat CD63 and unconjugated Alexa Fluor 546™ were used as positive and negative controls, respectively. The profiles of MARCKS-ED-Alexa Fluor 546™ and Alexa Fluor 546™ in the absence of microvesicles were also investigated to confirm that these show negligible scatter and fluorescence background signals under identical NTA conditions.
FIG. 5A represents fluorescence enhancement assay with MARCKS-ED incubated with the isolated microvesicles. Peptide MARCKS-ED ([…]) not treated with microvesicles was used as a negative control. Annexin-V (a positive control) and MARCKS-ED were incubated with the isolated rat microvesicles. Fluorescence was normalized to the negative control. […] The diameter size and particle count of the isolated microvesicles detected by MARCKS-ED was further quantified. Nanoparticle tracking analysis (NTA) uses a laser for scatter and fluorescence modes to track small particles by Brownian motion, providing a robust method for detecting nano-sized microvesicles. Under the fluorescence mode with the emission filter set for the Alexa Fluor 546™, the particles that bound to MARCKS-ED, MARCKSmut1, and MARCKSmut2peptides were observed.
FIG. 5B illustrates the results of NTA of microvesicles treated with MARCKS derived peptides. […] The untreated plasma samples were detected using the scatter mode and treated samples were monitored by tracking the fluorescence of Alexa Fluor 546™ conjugated to the MARCKS-ED MARCKSmut1 and MARCKSmut2 peptides. […] Furthermore, blank samples were performed to rule out possible artifacts of background fluorescence from the peptides, the vesicles and the unconjugated dye.

[2] = test system: PS-exposing cell membranes; experiment: Fluorescence staining of PS-exposing membranes in dissected gonads of C. elegans; assay type: in vivo; settings: wild type (N2), tat-1(tm3117) and ced-7(n2094) animals
Description: Fluorescence staining assays were carried out in an acceptible C. elegans model with PS-exposing cell membranes. […] NBD-MARCKS-ED was used to stain the dissected gonads of wild type (N2) animals, tat-1(tm3117) mutant animals, and engulfment-deficient ced-7 (n2094) mutant animals, respectively. 36 hour old hermaphrodite adult animals were collected and gently dissected by cutting their heads in a depression slide with a gonad dissection buffer (previously presented) to expose the gonads. The exposed gonads were then washed once in the dissection buffer and transferred to a dissection buffer containing 4 μM of Hoechst 33342 and 20 μM of NBD labeled MARCKS-ED peptide, 20 μM NBD-MARCKSmut1 peptide, or 10 nM Alexa Fluor 488-conjugated Annexin-V for 45 minutes. Gonads were washed one more time in the dissection buffer, placed on a 5% agarose pad, and visualized using a Nomarski microscope equipped with an epifluorescence detector.
FIGS. 6A-6C illustrate exemplary staining results using MARCKS derived peptides and Annexin V. PS is typically kept in the inner leaflet of plasma membranes in living cells and is exposed on the cell surface only under certain cellular events, i.e., when cells undergo apoptosis or lose the ability to maintain the PS asymmetry with a tat-1 gene mutation. FIG. 6A represents the staining results with labeled MARCKS-ED in wild type and mutants C. elegans. […] FIG. 6B represents the staining results with labeled MARCKSmut1 in wild type and mutants C. elegans. […] In FIGS. 6A-6B, nuclei were stained with Hoechst 33342. Annexin-V, a known PS-sensor, was also used to stain the gonads of tat-1 and ced-7 mutant C. elegans. […] Hoechst33342 (4 μM), FITC-AnnexinV (10 nM) and Nomarski images are shown. […] Scale bar=10 μm.

lipid vesicles = settings: cited from earlier work
[3] = test system: synthetic vesicles of sizes 100 nm and 400 nm; experiment: Cosedimentation assay of MARCKS-ED with synthetic vesicles; assay type: binding; settings: gel electrophoresis of supernatant and pellet
Text: as §1
In another exemplary method, a cosedimentation assay was performed to test the size differentiation behavior of MARCKS-ED. Two vesicle pore sizes, 100 and 400 nm, were used in this experiment because vesicles smaller than 100 nm were difficult to pellet even at high centrifugation speed. MARCKS-ED (10 μM) was incubated with 600 μM synthetic vesicles of sizes 100 nm and 400 nm. The positive control was the intact C2A-C2B cytoplasmic domains (C2AB) of rat Synaptotamin-1 (a.a. 96-421). C2AB (1.5 μM) was treated with CaCl2 (1 mM) and incubated with 300 μM synthetic vesicles of sizes 100 nm and 400 nm. C2AB treated with vesicles was incubated at room temperature for 30 minutes, followed by centrifugation of 65,000 rpm for 45 minutes at 20° C. MARCKS-ED treated with vesicles was incubated at room temperature for 2 hours, followed by 75,000 rpm for 45 minutes at 20° C. […]

binding affinity [1] | Molecule | fluorescence enhancement (29 nm liposomes) [RFU] | fluorescence enhancement and curvature sensing (synthetic lipid vesicles) | binding to microvesicles in whole plasma (NTA fluorescence mode) (microvesicles in plasma) | other results
 | Golgi-microtubule-associated protein-2101-38: ALPS motif-bearing established curvature-sensing protein fragment (MSSWLGGLGSGLGQSLGQVGGSLASLTGQISNFTKDML; UniProt Q15643 1-38, looked up, fragment) | ~1.25 |  |  | 
compromised | AAAAAAFSFAASFALSGFSFAANAA [MARCKSmut2, MARCKS-ED with positively charged residues (Lys, Arg) mutated to Ala] |  | significantly reduced fluorescence enhancement | only negligible binding | 
greatly reduced binding affinity | KKKKKRASAKKSAKLSGASAKKNKK [MARCKSmut1, MARCKS-ED with the five Phe residues mutated to Ala] |  | significantly reduced fluorescence enhancement | some preferential binding to smaller vesicles but with much weaker fluorescence signal | staining of PS-exposed membranes [2]: did not appear to detect PS-exposed membranes in either tat-1 or ced-7 mutant animals
 | nuclear pore complex protein-133245-267: ALPS motif-bearing established curvature-sensing protein fragment (LPQGQGMLSGIGRKVSSLFGILS; UniProt Q8WUM0 245-267, looked up, fragment) | ~1.25 |  |  | 
 | C2AB: intact C2A-C2B cytoplasmic domains of rat Synaptotamin-1 (a.a. 96-421), positive control (protein, UniProt P21707 96-421, looked up, fragment) GGKNAINMKDVKDLGKTMKDQALKDDDAETGLTDGEEKEEPKEEEKLGKLQYSLDYDFQNNQLLVGIIQAAELPALDMGGTSDPYVKVFLLPDKKKKFETKVHRKTLNPVFNEQFTFKVPYSELGGKTLVMAVYDFDRFSKHDIIGEFKVPMNTVDFGHVTEEWRDLQSAEKEEQEKLGDICFSLRYVPTAGKLTVVILEAKNLKKMDVGGLSDPYVKIHLMQNGKRLKKKKTTIKKNTLNPYYNESFSFEVPFEQIQKVQVVVTVLDYDKIGKNDAIGKVFVGYNSTGAELRHWSDMLANPRRPIAQWHTLQVEEEVDAMLAVKK |  |  |  | Kd (lipid vesicles; 105 nm vesicles): 151 ± 6 µM; increase in binding to smaller vesicles (105 nm) relative to the larger ones (252 nm) (lipid vesicles): 1.9 fold; pull-down by 100 nm vs 400 nm PS-containing vesicles [3]: more MARCKS-ED or C2AB was pulled down by the 100 nm, PS-containing vesicles than by the larger 400 nm vesicles
